The text below walks through data of patent US20260166021A1, “POLYMORPHIC FORMS OF A SOLUBLE EPOXIDE HYDROLASE INHIBITOR AND FORMULATIONS THEREOF” (EicOsis, LLC, priority 2022, published 2026).

Structures are written as SMILES.

Data set [1] is described as follows: Crystallization of Formula (I) in single- and binary-solvent systems (resultant XRD pattern). As for the experimental part:
Formula (I) crystallization was first analyzed in single-solvent systems lacking antisolvent. […] Fast cooling was performed by placing the vials in a 4° C. refrigerator for 24 hours, while slow cooling was performed by decreasing the temperatures of the vials by 20° C./h with stirring. The resulting solids were isolated by centrifuge filtration through […] centrifuge filters. When solids were not produced, the solution was evaporated under nitrogen as an additional attempt to obtain solid. All obtained solids were analyzed by XRD to determine the solid pattern.
Formula (I) recrystallization was then tested with binary-solvent systems containing water, n-heptane, or c-hexane as antisolvent. […] Anti solvents were added drop-wise at the same temperature until precipitate was observed or the vial volume was reached (˜7 mL). The vials were quickly cooled to 4° C. or slowly cooled by 20° C./hour as in the single-solvent recrystallizations. The resulting solids were isolated by centrifuge filtration. The samples without precipitation were evaporated to dryness under a gentle stream of nitrogen gas as an additional attempt to obtain solid. All obtained solids were analyzed by XRD to determine the solid form. […]

A short description of data set [2]: Differential scanning calorimetry (DSC): heat of fusion, thermal events. The data set is classed as physicochemical. Particulars: DSC thermogram of lot. Here is the method: Differential scanning calorimetry analyses were performed on each sample “as is.” Unless otherwise specified, samples were weighed in an aluminum pan, covered with a pierced lid, and then crimped and analyzed from 30-300° C. ramped at 10° C./min.
The DSC data were used to determine the heat of fusion for Forms A, B, D, and F, based on their heats of fusion as measured during conversion from Form C.
(Differential scanning calorimetry records heat flow against a reference as temperature is scanned.)

Data set [3] can be described thus: Thermal gravimetric analysis (TGA). The settings on record: TGA thermogram of lot. The data set is classed as physicochemical. Here is the method:
Thermal gravimetric analyses were performed on each sample “as is.” Unless otherwise noted, samples were weighed in an alumina crucible and analyzed from 30-350° C. at 10° C./min.
Form C weight loss at 39° C.-50° C. likely reflected methanol loss.

A short description of data set [4]: Particle size analysis (Malvern particle sizer, dry method; optical microscopy). The data set is classed as physicochemical. Particulars: for Size range / birefringence / crystal shape: polarized-light microscopic images. Here is the method: Particle size was first analyzed with optical microscopy.
Particle size was also analyzed with a dry-method using a Malvern 300 particle sizer equipped with a standard energy venturi and utilizing 2.5 bar, 3.0 bar, and 3.5 bar air pressure. […] One possible explanation is that the insufficient energy was provided to break up particle agglomerations.
Based on these findings, particle size analysis was repeated at 2.5, 3.0, and 3.5 bar using a higher energy venturi to ensure the break-up of the potential agglomerates. The detailed particle sizing data using high-energy venturi are summarized in TABLE 26 and in FIGS. 114-119, with FIGS. 114-116 corresponding to 2.5, 3.0, and 3.5 bar analyses of unmilled Form D and FIGS. 117-119 corresponding to 2.5, 3.0, and 3.5 bar analyses of micronized Form D, respectively. While the data remained bimodal, indicating incomplete break-up of particle agglomerates, the D90 of micronized material measured below 6 μm, in closer agreement with the optical analyses.

Data set [5] in a line: Moisture-sorption analysis (DVS). The data set is classed as physicochemical. Particulars: dynamic vapor sorption. Here is the method:
Gravimetric moisture sorption experiment was performed on all materials by first holding the sample at 40% RH and 25° C. until an equilibrium weight was reached or for a maximum of 4 h. The sample was then subjected to an isothermal (25° C.) adsorption scan from 40% to 90% R H in steps of 10% RH. The sample was allowed to equilibrate to an asymptotic weight at each point for a maximum of 4 h. Following adsorption, a desorption scan from 90% to 0% RH (at 25° C.) was run in steps of −10% R H allowing a maximum of 4 h for equilibration to an asymptotic weight. An adsorption scan was then performed from 0% RH to 40% RH in steps of +10% R H. The sample was then dried for more than 2 h at 60° C. 0% R H and the resulting solid analyzed by XRD.
FIGS. 88-92 provide physical analyses of lot 1. […] FIG. 90 provides a modulated DSC thermogram of lot 1, and identifies a glass transition temperature midpoint of around 48.5° C. […] FIG. 92 provides dynamic vapor sorption plots of lot 1, indicating 2.49 weight percent water vapor adsorption at 90% relative humidity, 1.25 weight percent water vapor adsorption at 60% relative humidity, and close to complete water vapor desorption at 0% relative humidity.
FIG. 95 provides polarized-light microscope images of lot 2 at 200× magnification, with 50 and 100 μm scales shown. […] FIG. 96 provides dynamic vapor sorption plots of lot 2, indicating 3.99 weight percent water vapor adsorption at 60% relative humidity, 4.12 weight percent water vapor adsorption at 90% relative humidity, and close to complete water vapor desorption at 0% relative humidity.

Data set [6] can be described thus: PEG-stability analyses: Form C/Form D mixture slurried in PEG300 with water. The settings on record: H2O:PEG 300 = 50%:50%. The data set is classed as physicochemical. As for the experimental part: Of particular interest was whether Form D would convert to a hydrate (e.g., Form C) in the presence of water. To investigate the critical water concentration for phase interconversion between Pattern C and D, a series experiments were designed (as summarized in TABLE 16). A 1:1 mixture of Forms C and D was prepared and slurried in PEG 300 with different levels of water concentrations. Phase transformations were monitored with XRD, and are summarized in FIG. 85, which (from top to bottom) provides XRD of Form C, Form D, the mixture following incubation in PEG300 containing 75% water, the mixture following incubation in PEG300 containing 50% water, the mixture following incubation in PEG300 containing 25% water, the mixture following incubation in PEG300 containing 10% water, and the mixture following incubation in PEG300 containing 5% water. […] Form D is the stable form in PEG300 with less than 50% water.

The nature of data set [7]: Bulk and tapped density (tap density tester). The data set is classed as physicochemical. Particulars: listed as micronixed form. From the text: Before milling, Form D was screened through a 30-micron mesh sieve. Then, Form D micronized using a 2-inch jet mill 70 psig feed pressure, 40 psig grinding pressure, and a 4.3 g/min powder feed rate. The micronization process provided a 69% yield and 95.6% crystallinity relative to the unmilled material.

`CC[C@H](C)C(=O)N1CCC(NC(=O)Nc2ccc(OC(F)(F)F)c(F)c2)CC1` [Formula (I) Form C]: the “Formula (I) Product Form” value in data set [1] (Acetone (0.1)/n-Heptane (0.4), 50° C., Slow, ppt/evaporate) is on record as “B + E”; in data set [1] (DMSO (0.1)/Water (0.05), 70° C., Slow, ppt/filtered), “D + F”; in data set [1] (EtOH (0.1)/c-Hexane (6), 70° C., Slow, clear/) it was “F + H”; in data set [1] (IPA (0.1)/c-Hexane (2), 70° C., Fast, ppt/filtered), “H + F”; in data set [1] (NMP (0.1)/c-Hexane (6), 70° C., Slow, clear/evaporate), “D + F”.

Take `CC[C@H](C)C(=O)N1CCC(NC(=O)Nc2ccc(OC(F)(F)F)c(F)c2)CC1` [lot 1]: in data set [2], the “Endotherm (likely dehydration of bound water)” value is 63 °C and the “Exotherm (crystallization of Form B)” value is 115 °C (crystallization of. Also, in data set [3], the “wt change at 233° C.” value was 99% wt change and the “wt change below 100° C.” value is 0% wt change. For the same compound, in data set [4], the Size range entry is “Size range; 5-80 μm;”, the birefringence entry is listed as “Birefringent” and the crystal shape entry is “Irregular plate;”. In data set [5], the “water vapor adsorption at 60% RH” value is on record as 60% RH 1.25 wt % and the “water vapor adsorption at 90% RH” value is given as 90% RH 2.49 wt %.

Regarding `CC[C@H](C)C(=O)N1CCC(NC(=O)Nc2ccc(OC(F)(F)F)c(F)c2)CC1` [C (50%) + D (50%)], the “XRD Pattern at Equilibrium” value in data set [6] was “C (major) + D (minor)”.

As to `CC[C@H](C)C(=O)N1CCC(NC(=O)Nc2ccc(OC(F)(F)F)c(F)c2)CC1` [micronized Form D, (S)-1-(3-fluoro-4-(trifluoromethoxy)phenyl)-3-(1-(2-methylbutanoyl)piperidin-4-yl)urea], in data set [7], the bulk density came to 0.20 g/mL and the tapped density was 0.22 g/mL. Also, the D90 particle size result in data set [4] (higher energy venturi, 2.5, 3.0 and 3.5 bar) was “below 6 μm”.

With `CC[C@H](C)C(=O)N1CCC(NC(=O)Nc2ccc(OC(F)(F)F)c(F)c2)CC1` [lot 2], in data set [2], the “Endotherm (likely dehydration of bound water)” value is 79 °C (likely dehydration of, the “Endotherm (melting of Form A)” value is 111 °C (melting of Form A), and the “Exotherm (crystallization of Form B)” value was 117 °C (crystallization of. Further, in data set [3], the “wt change at 233° C.” value worked out at 96% wt change and the “wt change below 100° C.” value is 2.9% wt change. In addition, in data set [4], the Size range entry is “Size range; 5-200 μm;”, the birefringence result is “Birefringent” and the crystal shape entry was “Irregular plate;”. Also, in data set [5], the “water vapor adsorption at 60% RH” value is 60% RH 3.99 wt % and the “water vapor adsorption at 90% RH” value is on record as 90% RH 4.12 wt %.
